Here are results for three compounds from patent US10730860B2, “Diaminopyrimidine benzenesulfone derivatives and uses thereof” (Dana-Farber Cancer Institute, Inc., priority 2014, dated 2020).

pEC50, pKd: −log10 of the molar value.

Experiment [1] concerns the target T1, BRD4.1 (Homo sapiens (Human), UniProt O60885). Nature of the experiment: Isothermal Titration Calorimetery (ITC). Type of experiment: binding. As to conditions: BRD4.1, 25° C. On the procedure:
Isothermal Titration Calorimetery
ITC was performed using a ITC200 microcalorimeter from GE™ (Northampton, Mass.). All experiments were carried out at 25° C. while stirring at 1000 rpm, in ITC buffer (50 mM HEPES pH 7.4 at 25° C., 150 mM NaCl). The microsyringe was loaded with a solution of the protein sample (225 μM, in ITC buffer). […] All titrations were conducted using an initial injection of 0.2 μl, followed by 19 identical injections of 2 μl with a duration of 5 sec (per injection) and a spacing of 90 sec between injections. The heat of dilution was determined by independent titrations (protein into buffer) and was subtracted from the experimental data. […] The collected data were implicated in the MicroCal™ Origin software supplied with the instrument to yield enthalpies of binding (ΔH) and binding constants (KB) as previously described by Wiseman and coworkers. Thermodynamic parameters were calculated (ΔG=ΔH−TΔS=−RT ln KB, where ΔG, ΔH and ΔS are the changes in free energy, enthalpy and entropy of binding respectively). A single binding site model was employed.
For orientation: In ITC the heat of successive injections is recorded.

For a further experiment, the system named is 797 cells. Nature of the experiment: Cellular assay, cell viability (ATPlite), BRD4 dependent cell line 797. Type of experiment: cell-based. The conditions noted are these: 72 h; BRD4 dependent cell line 797, three days incubation. On the procedure:
(§1) The compounds of the invention are also evaluated in the BRD4 dependant cell line for the cellular activity to generate cellular IC50 values.
(§2) Cells (e.g., BRD4 dependant cells) were counted and adjusted to 60,000 cells/mL. Using a Biotek EL406, 50 μL of the cells in media were distributed into 384 well white plates from Thermo. Immediately after plating, compounds of the invention in DMSO were distributed to plates. For large plate sets, cells were returned to a 37° C. incubator while not in use. The compounds were added to plates using a 100 nL 384 well pin transfer manifold on a Janus workstation. Stocks were arrayed in 10 point quadruplicate dose response in DMSO stock in 384-well Greiner compound plates. After addition of the compounds, plates were incubated for three days in a 37° C. incubator. Cell viability was read out using ATPlite from Perkin Elmer. Plates were removed from the incubator and brought to room temperature prior to use. Lyophilized powder was resuspended in lysis buffer and diluted 1:2 with DI water. 25 μL of this solution was added to each well using the Biotek liquid handler. Plates were sealed with adherent aluminum seals prior to vortexing and spinning down at 1000 g for 1 minute. Plates were incubated for 15 minutes at room temperature before signal was read on an Envision Plate Reader.
Background: Cellular ATP, detected with luciferase, serves as a proxy for viable cell number.

Another experiment concerns HL60 cells. Nature of the experiment: Cellular assay, cell viability (ATPlite), BRD4 dependent cell line HL60. As to conditions: Homo sapiens, HL-60, 72 h; BRD4 dependent cell line HL60, three days incubation. The format is cell-based. Here is the method: as §1, §2
The target of experiment [2] is T1, BRD4.1. Nature of the experiment: Acetyl-Histone Binding Assay (AlphaScreen). As to conditions: in vitro percent inhibition of BRD4.1 at 2.5 μM compound concentration; read-out: % INHIB (at 2.5 uM). Here is the method: Assays were performed with minor modifications from the manufacturer's protocol (PerkinElmer, USA). All reagents were diluted in 50 mM HEPES, 150 mM NaCl, 0.1% w/v BSA, and 0.01% w/v Tween^□ 20 at pH 7.5 and allowed to equilibrate to room temperature prior to addition to plates. After addition of Alpha beads to master solutions, all subsequent steps were performed in low light conditions. […] Addition to wells was performed with either a multichannel pipet (for optimization experiments) or a Biotek EL406 liquid handler. After a 1000-rpm spin-down for 1 minute, 100 nL of the solutions of the compounds of the invention from stock plates were added by pin transfer using a Janus Workstation (PerkinElmer, USA). The streptavidin-coated donor beads (25 μg/ml final) were added as with previous solution in a 2×, 10 μL volume. Following this addition, the plates were sealed with foil to block light exposure and to prevent evaporation. The plates were spun down again at 1000 rpm for 1 minute. Next, the plates were incubated in the room with the plate reader (for temperature equilibration) for 1.5 hour prior to reading the assay.

For `CC(C)(C)NS(=O)(=O)c1cccc(Nc2nc(Nc3ccc(OCCN4CCCC4)cc3)ncc2N)c1`, on BRD4.1 [1], the pKd (usually −log10 of the Kd, conventionally taken in molar units) is 6.32. The pEC50 (usually the EC50 on a negative log10 scale, so that one unit is a factor of ten) in the experiment with 797 cells was 5.62; in the experiment with HL60 cells, 5.68.
Take `CCN1CCN(C(=O)Cc2ccc(Nc3ncc(F)c(Nc4ccc(C(=O)Nc5ccccc5Cl)cc4)n3)cc2)CC1`: the inhibition at 2.5 µM on BRD4.1 [2] was determined as 56.1%.
Turning to `Cc1cnc(Nc2ccc(OCCN3CCCC3)cc2)nc1Nc1cccc(S(=O)(=O)NC(C)(C)C)c1`, the inhibition at 2.5 µM at BRD4.1 [2] stood at 36%.
